The record followed here is ChEMBL document CHEMBL1795255, “Discovery and optimization of potent and selective benzonaphthyridinone analogs as small molecule mTOR inhibitors with improved mouse microsome stability” (Bioorg Med Chem Lett, 2011).

As usually defined, the IC50 is the concentration at which inhibition is half-maximal. Lower therefore signals greater potency. A word on the EC50: it is the midpoint of the concentration-response curve. Usually inhibition stands for how much of the control response was suppressed. A higher inhibition goes with a strong effect. A word on the Cmax: it is the peak of the concentration-time curve. For orientation: Tmax means the time at which the peak concentration occurs. The term AUC(0-inf) denotes total exposure, with the tail of the curve extrapolated. Broadly, the clearance is the volume of plasma or blood freed of the substance per unit of time. Low readings indicate a low capacity for elimination, high ones a high capacity for elimination. For orientation: bioavailability means the share of a dose that reaches the circulation, judged against a reference dose that is usually intravenous. Low readings indicate poor availability, high ones good availability. What is called Vdss is the apparent volume that relates the amount in the body to the concentration in plasma or blood. Lower therefore signals little distribution into tissue.

Series [1] in a line: Inhibition of mTORC1.
Series [2] has as its target Serine/threonine-protein kinase mTOR (Mus musculus, UniProt Q9JLN9). As to the kind of experiment: Inhibition of mTOR-dependent S6K phosphorylation at T389 residue in MEF cells. Format: cell-based.
Series [3] in a line: Inhibition of PI3K-dependent Akt phosphorylation at T308 residue in human PC3 cells. The following applies: PC-3. It is filed as cell-based.
In series [4] the target is T1, Serine/threonine-protein kinase mTOR (Homo sapiens, UniProt P42345). As to the kind of experiment: Inhibition of mTOR.
Series [5] addresses T1, Serine/threonine-protein kinase mTOR. Nature of the series: Inhibition of mTOR-dependent S6K phosphorylation at T389 residue in liver at 20 mg/kg after 6 hrs by in vivo pharmacodynamic study. It is filed as organism-based. The arrangement: dose 20 mg/kg.
Series [6] has the same target. As to the kind of experiment: Inhibition of mTOR-dependent AKT phosphorylation at S473 residue in lung at 20 mg/kg after 6 hrs by in vivo pharmacodynamic study. The arrangement: dose 20 mg/kg. Format: organism-based.
For series [7] the target is unchanged. Nature of the series: Inhibition of mTOR-dependent AKT phosphorylation at S473 residue in liver at 20 mg/kg after 6 hrs by in vivo pharmacodynamic study. Format: organism-based. On the set-up: dose 20 mg/kg.
A short description of series [8]: Metabolic stability in mouse microsomes in presence of NADPH. It is filed as ADME, Microsome. The note with it: read-out: Stability.
In the next series the target is CYP3A4 (Homo sapiens, UniProt P08684). Nature of the series: Inhibition of CYP3A4 at 10 uM. It is filed as ADME.
CYP3A4, sequence (P08684 whole entry): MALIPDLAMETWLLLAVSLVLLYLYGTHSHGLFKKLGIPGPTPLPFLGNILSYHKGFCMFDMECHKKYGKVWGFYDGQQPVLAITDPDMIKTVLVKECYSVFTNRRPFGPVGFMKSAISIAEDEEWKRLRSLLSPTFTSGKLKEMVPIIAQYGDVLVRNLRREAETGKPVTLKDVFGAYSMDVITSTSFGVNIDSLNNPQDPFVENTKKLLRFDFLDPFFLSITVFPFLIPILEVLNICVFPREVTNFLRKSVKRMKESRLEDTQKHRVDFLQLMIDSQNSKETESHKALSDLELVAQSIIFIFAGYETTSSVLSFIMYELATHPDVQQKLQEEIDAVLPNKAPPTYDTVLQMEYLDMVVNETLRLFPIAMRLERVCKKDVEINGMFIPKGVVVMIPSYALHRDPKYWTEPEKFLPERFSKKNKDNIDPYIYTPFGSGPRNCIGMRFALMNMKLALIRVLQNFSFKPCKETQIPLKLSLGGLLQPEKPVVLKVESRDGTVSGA
Series [9] has as its target T1, Serine/threonine-protein kinase mTOR. As to the kind of experiment: Inhibition of mTOR-dependent S6K phosphorylation at T389 residue in lung at 20 mg/kg after 6 hrs by in vivo pharmacodynamic study. Format: organism-based. The arrangement: dose 20 mg/kg.
Series [10] in a line: (§1) Cmax in iv dosed mouse. The note with it: in vivo. On the set-up: route intravenous. Format: ADME, organism-based.
Series [11] is described as follows: (§2) Cmax in po dosed mouse. It is filed as ADME, organism-based. The arrangement: route oral. The note with it: in vivo.
A short description of series [12]: (§3) Tmax in po dosed mouse. Format: ADME, organism-based. The following applies: in vivo.
A short description of series [13]: AUC (0 to infinity) in iv dosed mouse. It is filed as ADME, organism-based. On the set-up: time infinity, route intravenous. The following applies: plasma.
Series [14] is described as follows: AUC (0 to infinity) in po dosed mouse. It is filed as ADME, organism-based. The note with it: plasma. The arrangement: route oral, time infinity.
A short description of series [15]: Half life in iv dosed mouse. Format: ADME, organism-based. The following applies: in vivo.
Series [16] can be described thus: Clearance in iv dosed mouse. Format: ADME, organism-based. The following applies: in vivo.
A short description of series [17]: (§4) Volume of distribution at steady state in iv dosed mouse. The following applies: in vivo, read-out: Vdss. Format: ADME, organism-based.
The nature of series [18]: Oral bioavailability in mouse. It is filed as ADME, organism-based. The note with it: in vivo.
Series [19] concerns the target Phosphatidylinositol 4-kinase alpha (Homo sapiens, UniProt P42356). Nature of the series: Inhibition of PI4K alpha.
Series [20] concerns the target Phosphatidylinositol 4-kinase beta (Homo sapiens, UniProt Q9UBF8). Nature of the series: Inhibition of PI4K beta.
The target in series [21] is Phosphatidylinositol 4-phosphate 3-kinase C2 domain-containing subunit alpha (Homo sapiens, UniProt O00443). Nature of the series: Inhibition of PI3K C2alpha.
Phosphatidylinositol 4-phosphate 3-kinase C2 domain-containing subunit alpha, sequence (O00443 whole entry, the tested form may be a part): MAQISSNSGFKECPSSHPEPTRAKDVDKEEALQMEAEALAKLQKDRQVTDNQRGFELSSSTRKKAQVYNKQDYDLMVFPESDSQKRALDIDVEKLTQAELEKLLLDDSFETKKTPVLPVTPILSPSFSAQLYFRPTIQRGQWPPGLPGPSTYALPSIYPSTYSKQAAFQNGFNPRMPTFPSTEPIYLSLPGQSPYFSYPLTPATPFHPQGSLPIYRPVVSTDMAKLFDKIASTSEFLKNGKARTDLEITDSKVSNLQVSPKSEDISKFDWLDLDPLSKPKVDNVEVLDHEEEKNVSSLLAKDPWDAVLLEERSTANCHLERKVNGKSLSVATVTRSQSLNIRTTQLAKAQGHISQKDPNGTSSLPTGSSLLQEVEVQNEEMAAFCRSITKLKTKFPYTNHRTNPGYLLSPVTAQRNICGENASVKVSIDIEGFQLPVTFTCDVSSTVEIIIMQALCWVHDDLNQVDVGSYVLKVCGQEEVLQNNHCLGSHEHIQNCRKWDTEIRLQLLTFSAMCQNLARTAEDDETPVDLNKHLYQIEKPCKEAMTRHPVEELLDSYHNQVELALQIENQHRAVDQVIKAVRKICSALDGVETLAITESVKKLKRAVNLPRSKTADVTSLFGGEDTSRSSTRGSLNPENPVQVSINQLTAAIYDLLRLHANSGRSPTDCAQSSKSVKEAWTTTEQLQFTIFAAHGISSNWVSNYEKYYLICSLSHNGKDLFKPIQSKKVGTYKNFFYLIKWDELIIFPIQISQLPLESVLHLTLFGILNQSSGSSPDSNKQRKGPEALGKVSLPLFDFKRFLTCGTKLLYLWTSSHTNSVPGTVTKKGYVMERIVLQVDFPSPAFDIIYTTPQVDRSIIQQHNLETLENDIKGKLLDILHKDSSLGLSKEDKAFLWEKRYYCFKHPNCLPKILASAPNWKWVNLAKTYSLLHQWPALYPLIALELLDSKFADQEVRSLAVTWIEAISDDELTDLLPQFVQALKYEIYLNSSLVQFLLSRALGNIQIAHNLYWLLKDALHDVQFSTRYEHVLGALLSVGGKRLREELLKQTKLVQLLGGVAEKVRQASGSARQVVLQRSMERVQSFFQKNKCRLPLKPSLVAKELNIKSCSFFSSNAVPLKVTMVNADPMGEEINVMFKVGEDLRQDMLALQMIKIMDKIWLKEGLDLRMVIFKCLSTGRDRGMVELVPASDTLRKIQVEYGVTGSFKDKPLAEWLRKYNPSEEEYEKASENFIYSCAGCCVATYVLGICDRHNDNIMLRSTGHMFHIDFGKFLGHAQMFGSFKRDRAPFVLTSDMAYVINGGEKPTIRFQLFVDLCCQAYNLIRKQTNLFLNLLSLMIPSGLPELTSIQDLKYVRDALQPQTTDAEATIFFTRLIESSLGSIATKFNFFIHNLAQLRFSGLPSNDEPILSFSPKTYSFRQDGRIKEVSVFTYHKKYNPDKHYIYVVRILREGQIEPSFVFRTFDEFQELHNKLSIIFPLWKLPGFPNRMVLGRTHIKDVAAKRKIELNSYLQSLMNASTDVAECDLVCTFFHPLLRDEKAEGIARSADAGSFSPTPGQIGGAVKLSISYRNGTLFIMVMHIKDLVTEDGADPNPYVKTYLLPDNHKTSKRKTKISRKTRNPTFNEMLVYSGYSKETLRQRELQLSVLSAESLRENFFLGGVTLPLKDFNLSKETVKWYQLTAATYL
The target of series [22] is Phosphatidylinositol 4-phosphate 3-kinase C2 domain-containing subunit beta (Homo sapiens, UniProt O00750). Nature of the series: Inhibition of PI3K C2beta.
In series [23] the target is Phosphatidylinositol 3-kinase catalytic subunit type 3 (Homo sapiens, UniProt Q8NEB9). Nature of the series: Inhibition of human VPS34.
Phosphatidylinositol 3-kinase catalytic subunit type 3, sequence (Q8NEB9 whole entry): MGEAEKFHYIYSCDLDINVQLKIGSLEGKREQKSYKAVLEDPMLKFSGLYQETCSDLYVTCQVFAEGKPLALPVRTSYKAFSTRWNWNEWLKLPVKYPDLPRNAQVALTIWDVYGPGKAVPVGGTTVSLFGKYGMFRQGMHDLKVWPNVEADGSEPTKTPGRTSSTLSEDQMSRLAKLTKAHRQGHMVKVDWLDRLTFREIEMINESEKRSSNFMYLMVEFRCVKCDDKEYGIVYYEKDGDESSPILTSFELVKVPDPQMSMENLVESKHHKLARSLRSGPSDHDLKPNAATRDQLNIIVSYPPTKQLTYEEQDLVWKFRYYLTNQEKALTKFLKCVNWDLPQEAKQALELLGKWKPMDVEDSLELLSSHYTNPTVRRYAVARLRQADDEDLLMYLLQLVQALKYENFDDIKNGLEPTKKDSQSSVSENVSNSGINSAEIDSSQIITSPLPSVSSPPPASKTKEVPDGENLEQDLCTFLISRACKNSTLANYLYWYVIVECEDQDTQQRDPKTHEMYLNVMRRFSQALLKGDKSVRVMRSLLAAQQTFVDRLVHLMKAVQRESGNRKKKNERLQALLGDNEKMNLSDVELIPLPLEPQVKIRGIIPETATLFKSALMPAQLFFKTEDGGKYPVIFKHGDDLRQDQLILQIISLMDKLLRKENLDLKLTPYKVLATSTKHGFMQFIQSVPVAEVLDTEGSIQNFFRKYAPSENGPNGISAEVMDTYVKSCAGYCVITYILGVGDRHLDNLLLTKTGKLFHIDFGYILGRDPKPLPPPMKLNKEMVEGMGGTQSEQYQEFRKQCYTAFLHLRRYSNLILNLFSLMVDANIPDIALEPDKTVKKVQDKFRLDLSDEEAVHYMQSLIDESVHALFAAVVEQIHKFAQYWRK
Series [24] concerns the target PI3-kinase p110-alpha/p85-alpha (Homo sapiens, UniProt P42336). Nature of the series: Inhibition of P110alpha/p85alpha. It is filed as protein-complex assay.
The test system of series [25] is Mus musculus. Described as §1. Format: ADME, organism-based. On the set-up: route intravenous. The note with it: in vivo.
Series [26] relates to Mus musculus. The description is as §2. It is filed as ADME, organism-based. The arrangement: route oral. The following applies: in vivo.
Series [27] concerns Mus musculus. Described as §3. Format: ADME, organism-based. The note with it: in vivo.
The subject of series [28] is Mus musculus. The series is described as §4. Format: ADME, organism-based. The following applies: in vivo.

Phosphatidylinositol 4-kinase beta, sequence (Q9UBF8 whole entry, the tested form may be a part): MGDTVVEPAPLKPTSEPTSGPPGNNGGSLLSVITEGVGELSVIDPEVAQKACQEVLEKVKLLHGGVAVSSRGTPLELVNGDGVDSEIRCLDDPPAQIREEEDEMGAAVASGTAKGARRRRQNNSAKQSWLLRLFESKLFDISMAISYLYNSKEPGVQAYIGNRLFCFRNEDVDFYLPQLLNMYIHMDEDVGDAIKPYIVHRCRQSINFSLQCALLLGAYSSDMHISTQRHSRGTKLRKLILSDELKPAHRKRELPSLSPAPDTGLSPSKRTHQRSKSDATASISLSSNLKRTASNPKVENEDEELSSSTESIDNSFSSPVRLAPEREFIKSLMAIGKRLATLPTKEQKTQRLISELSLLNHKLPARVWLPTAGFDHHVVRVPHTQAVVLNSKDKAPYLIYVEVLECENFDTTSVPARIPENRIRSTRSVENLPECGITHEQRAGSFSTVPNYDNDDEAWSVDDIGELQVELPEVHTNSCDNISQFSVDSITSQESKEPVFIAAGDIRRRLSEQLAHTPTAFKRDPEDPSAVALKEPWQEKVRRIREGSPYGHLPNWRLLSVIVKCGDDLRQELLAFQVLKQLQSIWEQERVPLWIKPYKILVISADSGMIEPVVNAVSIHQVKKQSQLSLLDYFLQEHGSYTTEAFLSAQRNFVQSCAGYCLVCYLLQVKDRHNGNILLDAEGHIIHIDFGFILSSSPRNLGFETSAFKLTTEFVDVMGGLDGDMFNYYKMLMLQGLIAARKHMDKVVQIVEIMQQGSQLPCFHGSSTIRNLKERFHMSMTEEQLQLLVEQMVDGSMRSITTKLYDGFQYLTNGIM

Turning to `Cc1cc(-n2c(=O)ccc3cnc4ccc(-c5ccc(N)nc5)cc4c32)ccc1-c1ccc(C(=O)NC2CCN(C)CC2)cc1`, in series [1], it took 39.8 nM to reach half-maximal inhibition (IC50). For the same compound, the EC50 is 50 nM in series [2] and more than 1250 nM in [3].
In [1], `CN1CCC(NC(=O)c2ccc(-c3ccc(-n4c(=O)ccc5cnc6ccc(-c7cn[nH]c7)cc6c54)cc3C(F)(F)F)cc2)CC1` returned an IC50 of 14.1 nM. For the same compound, the EC50 in series [2] worked out at 10 nM; in series [3], 1000 nM.
Regarding `CN1CCC(NC(=O)c2ccc(-c3ccc(-n4c(=O)ccc5cnc6ccc(-c7cnc8ccccc8c7)cc6c54)cc3C(F)(F)F)cc2)CC1`, the 50% inhibitory concentration (IC50) in [4] was 3.01 nM; in series [1], 21.7 nM; in series [19] it was more than 10000 nM; in series [20], 3440 nM; in series [21] it was 1110 nM; in series [22], 437 nM. The 50% inhibitory concentration (IC50) in [23] was found to be 170 nM; in [24], 922 nM. Moreover, the inhibition in [5], in series [6], in [7] and in series [9] was 80% in each case. In series [2], this compound showed an EC50 of 5 nM. The figures for the half-life in series [8] and in series [15] were 0.767 h and 3.61 h, respectively. The compound also displayed an inhibition at 10 µM at CYP3A4 of 61%. The Cmax turned out to be 1410 ng/mL in series [10] and 191 ng/mL in series [11]. The Tmax in series [12] came to 4 h. Further, the values for the total exposure AUC(0-inf) in series [13] and in series [14] were 1390 ng·h/mL and 1410 ng·h/mL, respectively. In [16], this compound yielded a clearance of 11.9 mL/min/kg. Also, the Vd in series [17] came out at 1.95 L/kg. Besides, in [18], the bioavailability was found to be 10.1%.
In [1], `O=c1ccc2cnc3ccc(-c4cnc5ccccc5c4)cc3c2n1-c1ccc(-c2ccc(CO)cc2)c(C(F)(F)F)c1` yielded a half-inhibitory concentration (IC50) of 17.3 nM. Further, the concentration giving a half-maximal response (EC50) is 30 nM in [2] and more than 300 nM in series [3].
`Cc1cc(-n2c(=O)ccc3cnc4ccc(-c5cnc6ccccc6c5)cc4c32)ccc1-c1ccc(C(=O)NC2CCN(C)CC2)cc1` displayed a 50% inhibitory concentration (IC50) in series [1] of 14.5 nM. Further, the EC50 in [2] was found to be 1 nM; in [3], 1000 nM. Besides, the half-life in [8] was 0.7 h; in series [15], 1.85 h. This compound also came in with an inhibition at 10 µM against CYP3A4 of 34%. Besides, the peak concentration (Cmax) was determined as 1050 ng/mL in series [10] and 115 ng/mL in series [11]. In series [12], the time to peak (Tmax) was determined as 1 h. Besides, the AUC(0-inf) in [13] worked out at 737 ng·h/mL; in series [14], 391 ng·h/mL. Further, the clearance in [16] amounted to 22.6 mL/min/kg. Further, the Vd in series [17] turned out to be 1.82 L/kg. The compound further displayed a bioavailability in [18] of 5.4%.
For the compound `CCC(=O)N1CCN(c2ccc(-n3c(=O)ccc4cnc5ccc(-c6cnc7ccccc7c6)cc5c43)cc2C(F)(F)F)CC1` [TORIN1], the values for the Cmax in the series with Mus musculus [25] and with Mus musculus [26] were 2757 ng/mL and 223 ng/mL, respectively. Moreover, the Tmax with Mus musculus [27] stood at 0.25 h. The AUC(0-inf) in series [13] stood at 720 ng·h/mL; in [14] it was 396 ng·h/mL. In the series on Mus musculus [28], this compound returned a Vdss of 0.59 L/kg.
In series [1], `Cc1cc(-n2c(=O)ccc3cnc4ccc(-c5cnc6[nH]ccc6c5)cc4c32)ccc1-c1ccc(C(=O)NC2CCN(C)CC2)cc1` showed a 50% inhibitory concentration (IC50) of 18.9 nM. The figures for the EC50 in series [2] and in series [3] were 25 nM and 1000 nM, respectively.
For `NC(=O)c1ccc(-c2ccc(-n3c(=O)ccc4cnc5ccc(-c6cnc7ccccc7c6)cc5c43)cc2C(F)(F)F)cc1` the same measures were 56.3 nM, 25 nM and more than 300 nM.
For `O=c1ccc2cnc3ccc(-c4cnc5ccccc5c4)cc3c2n1-c1ccc(-c2ccc(COC3CCCCO3)cc2)c(C(F)(F)F)c1` (stereo not drawn), in that order: 188 nM, 25 nM and more than 300 nM.
For `CNC(=O)c1ccc(-c2ccc(-n3c(=O)ccc4cnc5ccc(-c6cnc7ccccc7c6)cc5c43)cc2C(F)(F)F)cc1`, in that order: 10.2 nM, 15 nM and more than 300 nM.
`Cc1cc(-n2c(=O)ccc3cnc4ccc(-c5cn[nH]c5)cc4c32)ccc1-c1ccc(C(=O)NC2CCN(C)CC2)cc1` yielded a concentration for half-maximal inhibition (IC50) in series [1] of 38.1 nM. For the same compound, the concentration for a half-maximal effect (EC50) was 150 nM in series [2] and more than 1250 nM in series [3].
For `Cc1cc(-n2c(=O)ccc3cnc4ccccc4c32)ccc1-c1ccc(C(=O)NC2CCN(C)CC2)cc1`, in that order: more than 3000 nM, more than 1000 nM and more than 1250 nM.
With `CN1CCC(NC(=O)c2ccc(-c3ccc(-n4c(=O)ccc5cnc6ccc(-c7cnc(N)nc7)cc6c54)cc3C(F)(F)F)cc2)CC1`, half-maximal inhibition in series [1] (IC50) required 43.2 nM. The EC50 in [2] is 10 nM; in series [3], 1000 nM.
`O=C(O)c1ccc(-c2ccc(-n3c(=O)ccc4cnc5ccc(-c6cnc7ccccc7c6)cc5c43)cc2C(F)(F)F)cc1` gave an IC50 in series [1] of 22.9 nM. For the same compound, the concentration giving a half-maximal response (EC50) in series [2] was 20 nM; in series [3], more than 300 nM.
Turning to `COC(=O)c1ccc(-c2ccc(-n3c(=O)ccc4cnc5ccc(-c6cnc7ccccc7c6)cc5c43)cc2C(F)(F)F)cc1`, it took 299 nM to reach half-maximal inhibition in series [1] (IC50). In addition, the values for the EC50 in [2] and in series [3] were 200 nM and more than 300 nM, respectively.
`Cc1cc(-n2c(=O)ccc3cnc4ccc(-c5cnn(C)c5)cc4c32)ccc1-c1ccc(C(=O)NC2CCN(C)CC2)cc1`: the midpoint of inhibition in [1], the IC50, lay at 283 nM. The results for the 50% effective concentration (EC50) in series [2] and in [3] were 150 nM and more than 1250 nM, respectively.
